Measured values taken from patent US20030129193A1 (priority 2001, published 2003).

Assays:
[1] = test system: C1300 Muγ mouse neuroblastoma; test: In vivo tumor thrombosis and anti-tumor effects, C1300 (Muγ); design: species or system BALB/c nu/nu mice
factor X [2] = conditions: appropriate phospholipid membrane environment; cited from earlier work
[3] = test system: H460 human non-small cell lung carcinoma; test: Anti-tumor effects, H460; assay type: in vivo, nu/nu mice
Description: The tumor test systems were: i) L540 human Hodgkin's disease tumors growing in SCID mice; ii) C1300 Muγ (interferon-secreting) neuroblastoma growing in nu/nu mice; iii) H460 human non-small cell lung carcinoma growing in nu/nu mice. To establish solid tumors, 1.5×10^7 tumor cells were injected subcutaneously into the right anterior flank of SCID or BALB/c nu/nu mice (Charles River Labs., Wilmingham, Mass.). When the tumors had grown to various diameters mice were assigned to different experimental groups, each containing 4 to 9 mice.
Other mice received equivalent quantities of bispecific antibody alone. The injections were performed over ˜45 seconds into one of the tail veins, followed by 200 μl of saline. The infusions were repeated six days later. Perpendicular tumor diameters were measured at regular intervals and tumor volumes were calculated.

factor X [4] = test: Cell free two-stage coagulation assay; assay type: biochemical; conditions: Factor Xa generation, absorption at 405 nm
Description: In vitro coagulation activity was tested in a cell free two-stage coagulation assay. Negatively charged phospholipids at a final concentration of 50 μM (phosphatidylserine and phosphatidylcholine from Sigma, Taufkirchen, Germany) in calcium buffer (50 mM Tris pH=8.1, 150 mM NaCl, 2 mg/ml BSA, 5 mM Ca^++) were mixed with Factor VIIa (Sigma, Taufkirchen, Germany) at 10 nM and with samples or controls and incubated for five min at 37° C. Factor X was added to a final concentration of 30 nM and samples were incubated for 5 min at room temperature. Finally, the chromogenic substrate S2765 (Haemochrom, Essen, Germany) was added in a 100 mM EDTA solution. Factor Xa generation as a measure of Tissue Factor activity was determined by the increase in the absorption at 405 nm.
Negatively charged phospholipids at a final concentration of 50 μM (phosphatidylserine and phosphatidylcholine from Sigma, St. Louis, Mo.) in calcium buffer (50 mM Tris pH=8.1, 150 mM NaCl, 2 mg/ml BSA, 5 mM Ca^++) were mixed with Factor VIIa (Sigma. St. Louis, Mo.) at 10 nM and with samples or controls and incubated for five minutes at 37° C. Factor X (Sigma, St. Louis, Mo.) was added to a final concentration of 30 nM and samples were incubated for 5 minutes at room temperature. […] Factor Xa generation as a measure of tissue factor activity was determined by the increase in the absorption at 405 nm.

[5] = Clinical signs of toxicity and histology of normal organs; assay type: in vivo, SCID mice; conditions: for Symptoms: tTF alone
Description: (§1) Mice were closely observed after treatment for clinical signs of toxicity and clinical status was documented at defined time points (5 minutes, 10 minutes, 15 minutes, 30 minutes, 1 hour, 2 hours, 24 hours, 48 hours, 72 hours). Blood samples were taken from the tail vein at 1 hour, 2 hours and 24 hours to measure TNFα blood levels. Three days after treatment, the mice were anesthetized, blood samples were taken from the vena cava for coagulation tests, and an autopsy was performed to document any changes in gross pathology. Tumors, lymph node metastases and the major normal organs (heart, lung, brain, liver, kidney, colon, spleen, pancreas) were harvested and prepared for histological analysis.
Tissue samples harvested at the time of autopsy were fixed in 3% NBF (normal buffered formalin) and embedded in paraffin wax. Tissue blocs were cut, dewaxed and stained with hematoxilin and eosin (H&E). Tissue sections were analyzed on a light microscope by two independent investigators and histological findings were documented. Tumor sections with necrotic areas were scanned with a GS-700 imaging densitometer (Biorad, Hercules, Calif.) and areas of necrosis were calculated as % of total section area. Statistical Analysis was performed using SPSS software (SPSS Science Software, Erkrath, Germany) applying the Mann-Whitney-U-test for ungrouped data.

TNFα = TNFα serum levels in treated animals; assay type: in vivo, mice; conditions: tTF containing no endotoxin (n=6), any time point
Description: as §1
TNFα levels in serum were determined using the Quantikine-M kit (R&D Systems, Minneapolis, Minn.) according to the manufacturer's instructions.

[6] = test system: thrombin-antithrombin-complexes (TAT); test: Assessment of coagulation parameters: TAT; assay type: in vivo, mice; conditions: plasma, three days after i.v. treatment, tTF alone
Description: At the time of autopsy, citrated blood was sampled from the vena cava and thrombocyte-free plasma was prepared by centrifugation. The plasma was stored at −80° C. until further analysis. Thrombin-Antithrombin-complexes were detected with the Enzygnost® TAT micro-assay (Dade-Behring, Marburg, Germany) according to the manufacturer's instructions. ATIII levels were determined using the Coamatic® antithrombin-assay (Haemochrom, Essen, Germany) following the manufacturer's instructions. Changes in the blood levels of thrombin and plasmin were detected by mixing citrated plasma with the respective chromogenic substrates S2238 and S2403 (Haemochrom, Essen, Germany) and measuring the increase of the absorption at 405 nm by an ELISA reader.

With “tTF: extracellular domain of the mature Tissue Factor protein (amino acid 1-219)” the “thrombosis of tumor vessels” value ([1]; 24 hours after injection) was “practically all vessels in all regions of the tumor were thrombosed”, the “effect on vessels in small tumors” value ([1]; small (<500 mm^3) C1300 and C1300 Muγ) was “largely unaffected” and the tumor growth ([1]; tTF alone or mixed with control bispecific antibodies vs antibodies or saline alone) was “grew significantly more slowly”. The “factor X-activating activity, times less than native transmembrane TF” value (factor X [2]) was “approximately 10^5 times”, the “effect on growth rate” value ([3]; first treatment, small (250 mm^3) tumors) was “little effect on growth rate” and the “tumor volume after regression” value ([3]; second treatment given at 900 mm^3) was 550 mm^3. For the same substance, the “coagulation activities before and after endotoxin removal” value (factor X [4]) was “the same”, the “histological findings in normal organs” value ([5]; light microscopy, three days after treatment) was “No histological abnormalities” and the Symptoms ([5]; listed as TTF) was “None”. The Symptoms ([5]; listed as endotoxin-free tTF) was “no clinical signs of toxicity”, the TNFα serum level (TNFα) was “could not be detected” and the TAT [6] was 25.4 ng/mL.
